Source: ChEMBL document CHEMBL1201862, “PubChem BioAssay data set” (2004)
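A five-concentration, 48-hour dose response in 96-well plates underlies each endpoint, interpolated linearly between surrounding concentrations. At the GI50, growth is halved.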 Calls of active or inactive are those of the source. Rule as the data show it: active = GI50 up to about 1.1 µM and inactive = higher.

Assays:
Experiment in all cases: NCI anticancer screen, dose series, 48 h
OVCAR-5 = tested on: OVCAR-5
OVCAR-3 = tested on: OVCAR-3
DLD-1 = tested on: DLD-1
XF498 = tested on: XF498
SNB-75 = tested on: SNB-75
SR = tested on: SR
UACC-62 = tested on: UACC-62
CCRF-CEM = tested on: CCRF-CEM
DU-145 = tested on: DU-145
HCC 2998 = tested on: HCC 2998
NCI/ADR-RES = tested on: NCI/ADR-RES
LXFL 529 = tested on: LXFL 529
NCI-H226 = tested on: NCI-H226
PC-3 = tested on: PC-3
SW-620 = tested on: SW-620
RXF 631 = tested on: RXF 631
UACC-257 = tested on: UACC-257
SK-OV-3 = tested on: SK-OV-3
SK-MEL-28 = tested on: SK-MEL-28
A498 = tested on: A498
COLO 205 = tested on: COLO 205
HCT-15 = tested on: HCT-15
Hs-578T = tested on: Hs-578T
HT-29 = tested on: HT-29
A549 = tested on: A549
BT-549 = tested on: BT-549
NCI-H460 = tested on: NCI-H460
HOP-92 = tested on: HOP-92
M14 = tested on: M14
UO-31 = tested on: UO-31
K562 = tested on: K562
KM12 = tested on: KM12
EKVX = tested on: EKVX
SK-MEL-2 = tested on: SK-MEL-2
NCI-H23 = tested on: NCI-H23
HL-60 = tested on: HL-60
LOX IMVI = tested on: LOX IMVI
CAKI-1 = tested on: CAKI-1
SF-539 = tested on: SF-539
SK-MEL-5 = tested on: SK-MEL-5
Malme-3M = tested on: Malme-3M
SF-268 = tested on: SF-268
T47D = tested on: T47D
MDA-MB-435 = tested on: MDA-MB-435
MDA-MB-231 = tested on: MDA-MB-231
MOLT-4 = tested on: MOLT-4
KM-20L2 = tested on: KM-20L2
SNB-19 = tested on: SNB-19
786-0 = tested on: 786-0
U-251 = tested on: U-251
RPMI-8226 = tested on: RPMI-8226
IGROV-1 = tested on: IGROV-1
HCT-116 = tested on: HCT-116
SF-295 = tested on: SF-295
RXF 393 = tested on: RXF 393
DMS-114 = tested on: DMS-114
HOP-62 = tested on: HOP-62
NCI-H522 = tested on: NCI-H522
ACHN = tested on: ACHN
TK-10 = tested on: TK-10
SN12C = tested on: SN12C
OVCAR-4 = tested on: OVCAR-4
MCF7 = tested on: MCF7
MDA-N = tested on: MDA-N
OVCAR-8 = tested on: OVCAR-8
SNB-78 = tested on: SNB-78
DMS-273 = tested on: DMS-273
HOP-18 = tested on: HOP-18
M19-MEL = tested on: M19-MEL

## CC1c2ccccc2Cn2cc3c(c21)C(=O)c1cccc(OP(=O)(O)OCc2ccccc2)c1C3=O (stereo unspecified)
OVCAR-5
  GI50: > 100 µM (inactive)
OVCAR-3
  GI50: > 100 µM (inactive)
DLD-1
  GI50: > 100 µM (inactive)
XF498
  GI50: 34.3 µM (inactive)
SNB-75
  GI50: > 100 µM (inactive)
SR
  GI50: > 66.5 µM (inactive)
UACC-62
  GI50: > 100 µM (inactive)
CCRF-CEM
  GI50: > 56 µM (inactive)
DU-145
  GI50: > 100 µM (inactive)
HCC 2998
  GI50: > 100 µM (inactive)
NCI/ADR-RES
  GI50: > 100 µM (inactive)
LXFL 529
  GI50: > 100 µM (inactive)
NCI-H226
  GI50: > 100 µM (inactive)
PC-3
  GI50: > 100 µM (inactive)
SW-620
  GI50: > 100 µM (inactive)
RXF 631
  GI50: > 100 µM (inactive)
UACC-257
  GI50: > 100 µM (inactive)
SK-OV-3
  GI50: > 100 µM (inactive)
SK-MEL-28
  GI50: > 100 µM (inactive)
A498
  GI50: > 100 µM (inactive)
COLO 205
  GI50: > 100 µM (inactive)
HCT-15
  GI50: > 100 µM
Hs-578T
  GI50: > 100 µM (inactive)
HT-29
  GI50: > 100 µM (inactive)
A549
  GI50: > 100 µM (inactive)
BT-549
  GI50: > 100 µM (inactive)
NCI-H460
  GI50: > 100 µM (inactive)
HOP-92
  GI50: > 100 µM (inactive)
M14
  GI50: > 100 µM (inactive)
UO-31
  GI50: > 78.3 µM (inactive)
K562
  GI50: > 74.6 µM (inactive)
KM12
  GI50: > 100 µM (inactive)
EKVX
  GI50: > 66.1 µM (inactive)
SK-MEL-2
  GI50: > 100 µM (inactive)
NCI-H23
  GI50: > 100 µM (inactive)
HL-60
  GI50: > 52.5 µM (inactive)
LOX IMVI
  GI50: > 100 µM (inactive)
CAKI-1
  GI50: > 82.8 µM (inactive)
SF-539
  GI50: > 100 µM (inactive)
SK-MEL-5
  GI50: > 100 µM (inactive)
Malme-3M
  GI50: > 100 µM (inactive)
SF-268
  GI50: > 100 µM (inactive)
T47D
  GI50: 51.6 µM (inactive)
MDA-MB-435
  GI50: > 100 µM (inactive)
MDA-MB-231
  GI50: > 100 µM (inactive)
MOLT-4
  GI50: > 100 µM (inactive)
KM-20L2
  GI50: > 100 µM (inactive)
SNB-19
  GI50: > 100 µM (inactive)
786-0
  GI50: > 100 µM (inactive)
U-251
  GI50: > 100 µM (inactive)
RPMI-8226
  GI50: > 100 µM (inactive)
IGROV-1
  GI50: > 100 µM (inactive)
HCT-116
  GI50: > 100 µM (inactive)
SF-295
  GI50: > 100 µM (inactive)
RXF 393
  GI50: > 100 µM (inactive)
DMS-114
  GI50: > 100 µM (inactive)
HOP-62
  GI50: > 100 µM (inactive)
NCI-H522
  GI50: > 100 µM (inactive)
ACHN
  GI50: > 100 µM (inactive)
TK-10
  GI50: > 100 µM (inactive)
SN12C
  GI50: > 100 µM (inactive)
OVCAR-4
  GI50: > 100 µM (inactive)
MCF7
  GI50: 71.9 µM (inactive)
MDA-N
  GI50: > 100 µM (inactive)
OVCAR-8
  GI50: > 100 µM (inactive)

## COc1cc(C2c3cc4c(cc3[C@@H](Nc3cccc(O)c3)C3COC(=O)[C@H]23)OCO4)cc(OC)c1O (stereo partly specified)
SNB-78
  GI50: 6.03 µM (inactive)
OVCAR-5
  GI50: 8.26 µM (inactive)
OVCAR-3
  GI50: 4.04 µM (inactive)
DLD-1
  GI50: 3.56 µM (inactive)
XF498
  GI50: 0.766 µM (active)
SNB-75
  GI50: 2.38 µM (inactive)
SR
  GI50: 0.191 µM (active)
UACC-62
  GI50: 1.2 µM (inactive)
DMS-273
  GI50: 0.887 µM (active)
CCRF-CEM
  GI50: 0.425 µM (active)
DU-145
  GI50: 0.197 µM (active)
HCC 2998
  GI50: 3.58 µM (inactive)
NCI/ADR-RES
  GI50: 1.4 µM (inactive)
LXFL 529
  GI50: 2.55 µM (inactive)
NCI-H226
  GI50: 0.771 µM (active)
PC-3
  GI50: 2.14 µM (inactive)
SW-620
  GI50: 2.8 µM (inactive)
UACC-257
  GI50: 2.05 µM (inactive)
SK-OV-3
  GI50: 4.61 µM (inactive)
SK-MEL-28
  GI50: 2.81 µM (inactive)
HOP-18
  GI50: 8.59 µM (inactive)
A498
  GI50: 1.62 µM (inactive)
COLO 205
  GI50: 6.17 µM (inactive)
HCT-15
  GI50: 1.93 µM
HT-29
  GI50: 3.33 µM (inactive)
A549
  GI50: 0.439 µM (active)
BT-549
  GI50: 1.91 µM (inactive)
NCI-H460
  GI50: 0.0726 µM (active)
HOP-92
  GI50: 1.32 µM (inactive)
M14
  GI50: 2.79 µM (inactive)
UO-31
  GI50: 1.57 µM (inactive)
K562
  GI50: 1.69 µM (inactive)
KM12
  GI50: 3.31 µM (inactive)
EKVX
  GI50: 5.16 µM (inactive)
SK-MEL-2
  GI50: 5.2 µM (inactive)
NCI-H23
  GI50: 1.05 µM (active)
HL-60
  GI50: 0.445 µM (active)
LOX IMVI
  GI50: 0.703 µM (active)
SF-539
  GI50: 1.14 µM (inactive)
SK-MEL-5
  GI50: 1.7 µM (inactive)
Malme-3M
  GI50: 2.3 µM (inactive)
SF-268
  GI50: 1.89 µM (inactive)
T47D
  GI50: 2.24 µM (inactive)
MDA-MB-435
  GI50: 2.95 µM (inactive)
MDA-MB-231
  GI50: 5.42 µM (inactive)
MOLT-4
  GI50: 0.0359 µM (active)
KM-20L2
  GI50: 2.16 µM (inactive)
SNB-19
  GI50: 3.7 µM (inactive)
786-0
  GI50: 2.07 µM (inactive)
U-251
  GI50: 2.04 µM (inactive)
RPMI-8226
  GI50: 0.948 µM (active)
IGROV-1
  GI50: 3.98 µM (inactive)
HCT-116
  GI50: 1.76 µM (inactive)
SF-295
  GI50: 1.09 µM (active)
RXF 393
  GI50: 1.44 µM (inactive)
DMS-114
  GI50: 0.794 µM (active)
HOP-62
  GI50: 0.817 µM (active)
M19-MEL
  GI50: 1.97 µM (inactive)
NCI-H522
  GI50: 1.32 µM (inactive)
ACHN
  GI50: 0.668 µM (active)
TK-10
  GI50: 4.51 µM (inactive)
SN12C
  GI50: 1.55 µM (inactive)
OVCAR-4
  GI50: 12.2 µM (inactive)
MCF7
  GI50: 0.46 µM (active)
MDA-N
  GI50: 2.7 µM (inactive)
OVCAR-8
  GI50: 2 µM (inactive)
